The results in this text go back to BindingDB's records for doi:10.1016/j.bmcl.2003.11.082 (Cubist Pharmaceuticals, 2004).

The target of test [1] is Phenylalanine--tRNA ligase (Staphylococcus aureus). The experiment in a line: Compound was evaluated for the inhibitory activity against Staphylococcus aureus phenylalanyl-tRNA synthetase.
Test [2] addresses Phenylalanine--tRNA ligase (Escherichia coli). The experiment in a line: Compound was evaluated for the inhibitory activity against Escherichia coli phenylalanyl-tRNA synthetase.

In general, IC50 refers to the midpoint of a concentration-inhibition curve. A low value points to inhibition by little substance. Take `O=C(Nc1ccc(Cl)c(Cl)c1)[C@H]1[C@@H](C(=O)O)C2(O[C@H]1c1ccccc1)C(=O)c1ccccc1C2=O` [4-(3,4-dichlorophenylcarbamoyl)-1',3'-dioxo-5-phenylspiro[tetrahydrofuran-2,2'-(2',3'-dihydro-1'H-indene)]-3-carboxylic acid]: the IC50 in test [1] was found to be 33 µM; in test [2] it was 11 µM.
